The text below walks through data of ChEMBL document CHEMBL2331193, “Structure-based fragment screening is demonstrated to be a practical lead discovery method for a representative G-protein-coupled receptor” (J Med Chem, 2013).

Structures are written as SMILES.

The target of the assay is Beta-1 adrenergic receptor (Homo sapiens, UniProt P08588). The assay is described as follows: Binding affinity to beta1 adrenergic receptor (unknown origin).
Beta-1 adrenergic receptor, sequence (P08588 whole entry): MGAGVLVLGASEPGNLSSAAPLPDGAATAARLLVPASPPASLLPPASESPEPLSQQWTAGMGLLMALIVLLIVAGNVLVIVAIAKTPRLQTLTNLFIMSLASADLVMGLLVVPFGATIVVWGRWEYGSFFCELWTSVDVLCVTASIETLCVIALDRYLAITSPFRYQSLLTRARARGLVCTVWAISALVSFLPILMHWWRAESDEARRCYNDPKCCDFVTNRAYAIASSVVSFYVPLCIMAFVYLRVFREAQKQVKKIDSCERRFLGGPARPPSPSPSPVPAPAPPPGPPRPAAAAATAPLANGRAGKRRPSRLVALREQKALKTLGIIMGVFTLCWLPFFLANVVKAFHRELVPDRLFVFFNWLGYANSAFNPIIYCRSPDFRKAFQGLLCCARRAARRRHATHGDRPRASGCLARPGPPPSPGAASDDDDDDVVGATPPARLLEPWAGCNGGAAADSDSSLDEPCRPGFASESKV

For orientation: Ki means the equilibrium dissociation constant of an inhibitor or competing ligand from its target. A higher Ki goes with a looser hold on the target. For the compound `Cc1cc(N2CCNCC2)nc2ccccc12`, the Ki is 220 nM.
